Target: T1, DGAT1 (Homo sapiens, UniProt O75907)
T1 construct: host or cells: HepG2 cell homogenate (supernatant after sonication and 2000×g centrifugation)
T1 sequence (O75907 1-488): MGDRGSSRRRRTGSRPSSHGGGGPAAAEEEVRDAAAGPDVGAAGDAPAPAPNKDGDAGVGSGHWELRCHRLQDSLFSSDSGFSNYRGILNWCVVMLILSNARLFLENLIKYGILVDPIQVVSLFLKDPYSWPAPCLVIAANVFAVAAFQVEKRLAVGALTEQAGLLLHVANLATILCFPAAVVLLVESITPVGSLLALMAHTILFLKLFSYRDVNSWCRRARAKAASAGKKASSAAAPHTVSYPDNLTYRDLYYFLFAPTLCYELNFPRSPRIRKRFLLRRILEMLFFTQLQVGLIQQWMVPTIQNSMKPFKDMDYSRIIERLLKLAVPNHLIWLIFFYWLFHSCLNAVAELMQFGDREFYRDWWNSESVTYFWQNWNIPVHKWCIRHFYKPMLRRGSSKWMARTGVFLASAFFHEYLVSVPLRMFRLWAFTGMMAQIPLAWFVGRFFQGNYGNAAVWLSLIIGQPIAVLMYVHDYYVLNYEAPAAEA
Assay: Assay for inhibition of DGAT1 activity (IC50), in vitro enzymatic assay using homogenates of HepG2 cell line
Type: biochemical
Conditions: inhibitory activity against DGAT1; HepG2 protein (25 μg), 1,2-dioleoyl-sn-glycerol (30 μM), 14C oleoyl coenzyme A (10 μM), room temperature, 60 mins
Method: In order to identify DGAT1 inhibitors, in vitro enzymatic assays were performed by using homogenates of HepG2 cell line (ATCC, USA, HB-8065). Briefly stated, HepG2 cells were inoculated in 10% FBS-supplemented medium at 1.0×10^7 cells/well, cultured at 37° C., and harvested 72 hrs later. The harvested cells were lysed by ultrasonic treatment, and centrifuged for at 4° C. (2000×g, 10 mins) to remove any uncracked cells and impurities. The supernatant thus formed was obtained, and stored at −70° C. after its protein contents were quantitatively analyzed.
DGAT1 activation was assayed by a modification of the method described by Coleman (Methods in Enzymology, 1992, 209, 98-102). The compound of the present invention ([…]) was incubated with HepG2 protein (25 μg), MgCl2 (150 mM) and 1,2-dioleoyl-sn-glycerol (30 μM) in a total assay volume of 200 μL in plastic tubes.
The reaction was started by adding ^14C oleoyl coenzyme A (10 μM final concentration) and incubated at room temperature for 60 mins. The reaction was ended when a mixed solution (300 μL) of 2-propanol and heptane (7:1) was added thereto. Radioactive triolein product was separated into the organic phase by adding heptane (200 μL) and 1.0 M carbonate buffer (200 μL, pH 9.5). DGAT1 activity was quantified by counting aliquots of the upper heptane layer by liquid […].

Structure (SMILES): O=C(O)Cc1ccc(-c2csc3c(-c4ccc(Nc5nc6ccccc6s5)cc4)ncnc23)cc1 [Example 61, 2-(4-(4-(4-(benzo[d]thiazol-2-ylamino)phenyl)thieno[3,2-d]pyrimidin-7-yl)phenyl)acetic acid]
- IC50: < 5 nM
